Reference: ChEMBL document CHEMBL2384921, “An altered zinc-binding site confers resistance to a covalent inactivator of New Delhi metallo-beta-lactamase-1 (NDM-1) discovered by high-throughput screening” (Bioorg Med Chem, 2013)
Calls of active or inactive are those of the source. No cut-off for these calls is given here.

Key:
[1] = Inhibition of NDM-1 (unknown origin) using nitrocefin as substrate preincubated 10 mins followed by substrate addition measured after 20 mins
[2] = Inhibition of TEM-1 (unknown origin) using nitrocefin as substrate preincubated 10 mins followed by substrate addition measured after 20 mins
[3] = Inhibition of TEM-1 (unknown origin) using nitrocefin as substrate preincubated 10 mins followed by substrate addition measured after 20 mins relative to control
[4] = Time-dependent inhibition of recombinant NDM-1 C108D mutant (unknown origin) expressed in Escherichia coli BL21 (DE3) at 100 uM
[5] = Time-dependent inhibition of wild type NDM-1 (unknown origin) expressed in Escherichia coli BL21 (DE3) at 100 uM

Compound | IC50 [1] [µM] | IC50 [2] [µM] | Imax [3] [%] | inhibition [4] | inhibition [5]
OCCN(CCO)c1nc(N2CCCCC2)c2nc(N(CCO)CCO)nc(N3CCCCC3)c2n1 [DIPYRIDAMOLE] | > 10 | > 30 | 26 | – | –
Nc1ccc2c3c(cccc13)C(=O)NC2=O | 0.7 | 5.2 | 131 | – | –
4-[sequence] ACID | – | – | 8 | inactive | Active
CC(=O)[C@]1(O)Cc2c(O)c3c(c(O)c2[C@@H](O[C@H]2C[C@H](N)[C@H](O)[C@H](C)O2)C1)C(=O)c1ccccc1C3=O [IDARUBICIN] | 0.7 | 7.3 | 100 | – | –
CCN(CC)C(=O)N[C@@H]1C[C@@H]2c3cccc4[nH]cc(c34)C[C@H]2N(C)C1 | > 30 | > 30 | – | – | –
Cn1cc(C2=C(c3ccc(Cl)cc3Cl)C(=O)NC2=O)c2ccccc21 [SB-216763] | 28 | > 30 | 2 | – | –
4-CHLOROMERCURIBENZOIC ACID | 2.3 | > 30 | – | – | –
Cc1c2ccncc2c(C)c2c1[nH]c1ccccc12 [ELLIPTECINE] | > 30 | > 30 | – | – | –
